Assays:
MrpORP (Dde3202) = biological target: T1, MrpORP (Dde3202) (Oleidesulfovibrio alaskensis, UniProt Q30WF0); assay: UV-visible spectroscopy after in vitro Fe-S reconstitution; assay type: binding; conditions: anaerobic, DTT, Fe2+ with cysteine/IscS; a second cluster in the Di-Nase domain also contributes
T1 construct: gene Dde_3202; full length, His-tagged (pJF119-3202His), produced in E. coli TG1, isolated aerobically and reconstituted; 43 kDa; [4Fe-4S] proposed between two monomers
T1 sequence (Q30WF0 1-415): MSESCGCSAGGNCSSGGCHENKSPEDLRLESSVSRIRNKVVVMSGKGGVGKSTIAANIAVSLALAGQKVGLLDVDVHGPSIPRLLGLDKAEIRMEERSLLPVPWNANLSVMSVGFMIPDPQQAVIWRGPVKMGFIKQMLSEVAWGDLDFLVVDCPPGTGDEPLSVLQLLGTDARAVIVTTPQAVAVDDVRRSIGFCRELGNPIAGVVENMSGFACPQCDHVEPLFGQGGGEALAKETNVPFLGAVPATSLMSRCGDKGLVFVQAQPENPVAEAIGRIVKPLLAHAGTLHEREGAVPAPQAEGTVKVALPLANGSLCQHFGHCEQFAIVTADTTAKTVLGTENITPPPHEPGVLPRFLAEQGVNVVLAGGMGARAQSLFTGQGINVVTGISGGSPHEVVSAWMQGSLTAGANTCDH

Orp3-Orp4-Orp8 complex = biological target: T2, Orp3-Orp4-Orp8 complex (Nitratidesulfovibrio vulgaris, UniProt Q72A93+Q72A94); assay: Fe-S cluster transfer from holo-MrpORP, Ni-NTA separation, UV-visible spectroscopy; assay type: binding; conditions: anaerobic, DTT; cluster type from sequence motifs of Orp3 and Orp4, distribution between chains not resolved
T2 construct: gene DVU_2103; His-tagged Orp3 (pBMC6C3::2103His) co-purified with Orp4 and Orp8 from DvH, metal centres removed; with Orp8, dinitrogenase iron-molybdenum cofactor biosynthesis domain protein
T2 sequence (Q72A94 1-287): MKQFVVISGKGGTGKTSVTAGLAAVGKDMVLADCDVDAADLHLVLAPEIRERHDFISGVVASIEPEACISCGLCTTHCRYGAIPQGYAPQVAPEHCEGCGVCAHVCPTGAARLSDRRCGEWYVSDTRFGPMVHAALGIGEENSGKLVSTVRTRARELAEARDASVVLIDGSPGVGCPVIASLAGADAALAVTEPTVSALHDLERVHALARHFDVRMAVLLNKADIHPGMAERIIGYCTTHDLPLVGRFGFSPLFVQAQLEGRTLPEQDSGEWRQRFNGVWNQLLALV
T2 sequence (Q72A93 1-301): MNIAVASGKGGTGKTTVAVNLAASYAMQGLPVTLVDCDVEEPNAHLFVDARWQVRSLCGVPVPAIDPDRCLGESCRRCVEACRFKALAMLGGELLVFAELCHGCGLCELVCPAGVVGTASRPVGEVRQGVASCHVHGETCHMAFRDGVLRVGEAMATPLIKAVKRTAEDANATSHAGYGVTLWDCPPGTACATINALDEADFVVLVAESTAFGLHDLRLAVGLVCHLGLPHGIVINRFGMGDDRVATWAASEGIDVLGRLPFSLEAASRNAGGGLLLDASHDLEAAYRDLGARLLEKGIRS
T2 sequence (Q72A89 1-119 partner): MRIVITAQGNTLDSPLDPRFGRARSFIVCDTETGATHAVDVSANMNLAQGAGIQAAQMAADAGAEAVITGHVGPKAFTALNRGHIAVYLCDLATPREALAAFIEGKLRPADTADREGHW

[4Fe-4S] cluster
A400/A280 (MrpORP (Dde3202)): 0.3
A400/A280 (Orp3-Orp4-Orp8 complex): 0.42
